Source: patent US6767718B2, “Lipodepsipeptide antibiotics and methods of preparation” (BioSource Pharm, Inc., priority 2002, dated 2004)
Numbered stars: 1 amine (or outer) side, 2 acyl side, 3 side chain; on linkers, the order of the positions; unused ones are H or OH. Bridge positions count the residues as written; N and C are the ends. Square brackets hold non-standard residues; d marks the D form. Peptide text beside a SMILES is read from it. * marks the point of attachment. X1 = CC(CC(=O)O)C(N[*:1])C(=O)[*:2]; Kyn = Nc1ccccc1C(=O)C[CH](N)C(=O)O; NH(CH2)11CH3 = CCCCCCCCCCCCN*; Orn = NCCC[CH](N)C(=O)O; CO = O=C([*:1])[*:2]

Assays:
[1] = test system: Staphlococcus aureus strain Smith; experiment: MIC by serial twofold broth dilution in Mueller Hinton broth without and with 4 mmolar CaCl2; assay type: cell-based, Staphylococcus aureus; conditions: for MIC vs. S. aureus w Ca++ / MIC vs. S. aureus wo Ca++: S. aureus strain Smith; for MIC vs. S. aureus w Ca++: Mueller Hinton broth with 4 mmolar CaCl2; for MIC vs. S. aureus wo Ca++: Mueller Hinton broth without CaCl2
[2] = test system: gram positive bacteria including methicillin-resistant Staphylococcus aureus (MRSA) and vancomycin-resistant enterococci (VRE); conditions: including MRSA and VRE strains; cited from earlier work

Molecule | MIC vs. S. aureus w Ca++ [1] | MIC vs. S. aureus wo Ca++ [1] | Antibacterial activity (in words) ([1]; carbamoyl-linked compounds, Table 2) | Activity against gram positive bacteria (in words) [2]
CCCCCCCCCCCCNC(=O)NC(CC(=O)O)C(=O)NC1C(=O)NCC(=O)NC(CCCN)C(=O)NC(CC(=O)O)C(=O)NC(C)C(=O)NC(CC(=O)O)C(=O)NCC(=O)NC(CO)C(=O)NC(C(C)CC(=O)O)C(=O)NC(CC(=O)c2ccccc2N)C(=O)OC1C (centres unmarked) [Compound 1, N-Dodecylcarbamoyl-cyclodepsipeptide-1] ({NH(CH2)11CH3-CO}-DTG[Orn]DADGS[X1][Kyn]; ester 2-C; configuration not given here) | 10.0 | >20 | good antibacterial activity | 
CH3(CH2)8CO-Trp-Asn-Asp-tBOC-cdpeptide [tBOC daptomycin, reference compound] | 0.6 | >2.5 |  | 
CH3(CH2)8CO-Trp-Asn-Asp-cdpeptide [daptomycin, reference compound] | 0.16 | 2.5 |  | excellent activity
CH3(CH2)8CO-D-Harm-Asn-Asp-cdpeptide [Compound 14] | >10 | >10 |  | 
CH3(CH2)8CO-Asn-Asp-cdpeptide [Compound 4] | >10 | >20 |  | 
CH3(CH2)11NHCO-Asn-Asp-FMOC-cdpeptide [Compound 2] | 5.0 | >20 |  | 
CH3(CH2)9SO2-L-Phe-Asn-Asp-FMOC-cdpeptide [Compound 8] | 5.0 | >20 |  | 
CCCCCCCCCC(=O)NC(Cc1cccc2ccccc12)C(=O)NC(CC(N)=O)C(=O)NC(CC(=O)O)C(=O)NC1C(=O)NCC(=O)NC(CCCN)C(=O)NC(CC(=O)O)C(=O)NC(C)C(=O)NC(CC(=O)O)C(=O)NCC(=O)NC(CO)C(=O)NC(C(C)CC(=O)O)C(=O)NC(CC(=O)c2ccccc2N)C(=O)OC1C [Compound 11, N-Decanoyl-L-β-(1-naphthyl)alanyl-cyclodepsipeptide-2] | 0.16 | 2.5 |  | 
CH3(CH2)8CO-L-Harm-Asn-Asp-cdpeptide [Compound 13] | 5.0 | >10 |  | 
